The record followed here is ChEMBL document CHEMBL1145244, “In vitro advanced antimycobacterial screening of isoniazid-related hydrazones, hydrazides and cyanoboranes: part 14” (2005).

Molecules are shown by their SMILES. In brackets after ≈: the same amount, converted by molar mass.

What all share (type): functional
Assay [1] has as its system Mycobacterium tuberculosis. The assay is described as follows: In vitro antimycobacterial activity against ethambutol-resistant Mycobacterium tuberculosis strain.
The subject of assay [2] is Mycobacterium tuberculosis. The assay is described as follows: In vitro antimycobacterial activity against isoniazid-resistant Mycobacterium tuberculosis strain.
For assay [3], the system named is Mycobacterium tuberculosis. Put plainly: In vitro antimycobacterial activity against ethionamide-resistant Mycobacterium tuberculosis strain.
The subject of assay [4] is Mycobacterium tuberculosis. The assay is described as follows: In vitro antimycobacterial activity against rifampin-resistant Mycobacterium tuberculosis strain.
Assay [5] concerns Mycobacterium tuberculosis. The assay is described as follows: In vitro antimycobacterial activity against thiacetazone resistant Mycobacterium tuberculosis strain.
In assay [6] the test system is Mycobacterium tuberculosis. The assay is described as follows: Minimum inhibitory concentration against isoniazid-resistant Mycobacterium tuberculosis strain.

On to `C/C(=N\NC(=O)c1ccncc1)c1cccc(/C(C)=N/NC(=O)c2ccncc2)n1`, for which the minimal inhibitory concentration (MIC) in assay [1] was ≤ 0.2 µg/mL; in assay [2], > 12.5 µg/mL; in assay [3], > 12.5 µg/mL; in assay [4], ≤ 0.2 µg/mL; in assay [5], > 12.5 µg/mL. The MBC worked out at 12.5 µg/mL (≈ 31.1 µM) in assay [2] and 6.25 µg/mL (≈ 15.6 µM) in assay [4].

`O=C(N/N=C/c1ccc(C(F)(F)F)cc1)c1ccncc1`: the MIC in assay [1] was 0.2 µg/mL (≈ 0.682 µM); in assay [2] it was > 1.6 µg/mL; in assay [3], 1.6 µg/mL (≈ 5.46 µM); in assay [4], 0.2 µg/mL (≈ 0.682 µM); in assay [5] it was > 1.6 µg/mL. Also, the MBC was > 1.6 µg/mL in assay [2] and 0.4 µg/mL (≈ 1.36 µM) in assay [4].

With `N#CC[n+]1ccc(C(=O)NNCC(F)(F)F)cc1`, the MIC is 12.5 µg/mL in assay [1]; > 25 µg/mL in assay [2]; > 25 µg/mL in assay [3]; 12.5 µg/mL in assay [4]; > 25 µg/mL in assay [5]. For the same compound, the MBC in assay [2] is > 25 µg/mL; in assay [4], 6.25 µg/mL.

Consider `N#CC[n+]1ccc(C(=O)NNCc2ccccc2)cc1`, for which the MIC in assay [1] was 6.25 µg/mL; in assay [2] it was > 25 µg/mL; in assay [3], > 25 µg/mL; in assay [5], > 25 µg/mL. Also, the MBC in assay [2] was > 25 µg/mL.

As for `C/C=N/NC(=O)c1ccncc1`, the MIC in assay [1] is 0.025 µg/mL (≈ 0.153 µM); in assay [2] it was > 0.75 µg/mL; in assay [3], 0.375 µg/mL (≈ 2.3 µM); in assay [4], 0.05 µg/mL (≈ 0.306 µM); in assay [5], > 0.75 µg/mL. The values for the MBC in assay [2] and in assay [4] were > 0.75 µg/mL and 0.05 µg/mL (≈ 0.306 µM), respectively.

As to `C/C(=N\NC(=O)c1ccncc1)C(F)(F)F`, the MIC in assay [1] was 0.2 µg/mL (≈ 0.865 µM); in assay [2], > 1.6 µg/mL; in assay [3] it was > 1.6 µg/mL; in assay [4], 0.2 µg/mL (≈ 0.865 µM); in assay [5], > 1.6 µg/mL. The minimum bactericidal concentration (MBC) in assay [2] is > 1.6 µg/mL; in assay [4], 0.2 µg/mL (≈ 0.865 µM).

For `NNC(=O)c1ccncc1` [ISONIAZID], the MBC in assay [2] was > 1.6 µg/mL. For the same compound, the MIC in assay [6] was > 0.2 µg/mL.

As a reminder, the MIC is the lowest concentration found to suppress growth. A high value points to a need for much substance. The MBC is the smallest concentration meeting the test's criterion for killing.
